Numbered stars: 1 amine (or outer) side, 2 acyl side, 3 side chain; on linkers, the order of the positions; unused ones are H or OH. Bridge positions count the residues as written; N and C are the ends. Square brackets hold non-standard residues; d marks the D form. Peptide text beside a SMILES is read from it. Phe(4-guanidino) = N=C(N)Nc1ccc(C[C@H](N)C(=O)O)cc1; Pro(trans-4-Ph) = O=C(O)[C@@H]1C[C@@H](c2ccccc2)CN1; Pro(4R-Bn) = O=C(O)[C@@H]1C[C@@H](Cc2ccccc2)CN1; 2Nal = N[C@@H](Cc1ccc2ccccc2c1)C(=O)O; TBMB = c1c(C[*:1])cc(C[*:3])cc1C[*:2]; Hyp = O=C(O)[C@@H]1C[C@@H](O)CN1; Tic = O=C(O)[C@@H]1Cc2ccccc2CN1; Pen = CC(C)(S)[C@H](N)C(=O)O; Aze = O=C(O)[C@@H]1CCN1; Abu = CC[C@H](N)C(=O)O; Aib = CC(C)(N)C(=O)O
Tests used:
[1] = Plasma stability profiling method 1 (35% plasma, MALDI-TOF, qualitative); type: in vitro ADME, rat; conditions: for Observable in rat plasma, for days: 35% rat plasma, 37 deg C, method 1, comparative estimate; for rat plasma stability: method 1
Experimental: Three methods were employed to assess the stability of bicycles (peptides conjugated to molecular scaffolds) in plasma.
A rapid plasma stability profiling assay was developed that employed mass spectrometric detection (MALDI-TOF, Voyager DE, Applied Biosystems) of the parent mass, until the time when the parent peptide mass was no longer observable. Specifically, 200 uM of peptide was incubated in the presence of 35% rat or human plasma (Sera labs, using citrate as anticoagulant) at 37 deg C., which was supplemented with 1×PBS (derived from a 10×PBS Stock, Sigma). At various time points (i.e. t=0, 3, 24 hrs, henceafter daily up to 10 days), 2 uL of sample was added to 18 uL of 30 mM ammonium bicarbonate in a 1:1 mixture of acetonitrile:H2O. Samples were frozen at −80 deg C. until the time of analysis. For mass spectrometric analysis that determines the approximate detection window of the peptide, the acetonitrile:H2O-diluted sample of a given time point was spotted directly (0.7 uL) onto the MALDI plate. Matrix (alpha-cyanocinnamic acid, Sigma, prepared as a saturated solution in 1:1 acetonitrile:water containing 0.1% trifluoroacetic acid) was layered over the sample (1 uL). At a similar laser intensity setting on the MALDI TOF, the time could then be determined until parent peptide was no longer detectable. It should be noted that this is a qualitative assay serves to detect relative changes in plasma stability.

human plasma Kallikrein = biological target: T1, human plasma Kallikrein (Homo sapiens, UniProt P03952); assay: Functional enzyme inhibition assay, fluorogenic substrate Z-PheArg-AMC; type: biochemical; conditions: for Ki: Ki (nM) (human kallikrein), Ac-06-34-18(TMB)-NH2 series
T1 construct: purchased Stratech, UK
T1 sequence (P03952 20-638): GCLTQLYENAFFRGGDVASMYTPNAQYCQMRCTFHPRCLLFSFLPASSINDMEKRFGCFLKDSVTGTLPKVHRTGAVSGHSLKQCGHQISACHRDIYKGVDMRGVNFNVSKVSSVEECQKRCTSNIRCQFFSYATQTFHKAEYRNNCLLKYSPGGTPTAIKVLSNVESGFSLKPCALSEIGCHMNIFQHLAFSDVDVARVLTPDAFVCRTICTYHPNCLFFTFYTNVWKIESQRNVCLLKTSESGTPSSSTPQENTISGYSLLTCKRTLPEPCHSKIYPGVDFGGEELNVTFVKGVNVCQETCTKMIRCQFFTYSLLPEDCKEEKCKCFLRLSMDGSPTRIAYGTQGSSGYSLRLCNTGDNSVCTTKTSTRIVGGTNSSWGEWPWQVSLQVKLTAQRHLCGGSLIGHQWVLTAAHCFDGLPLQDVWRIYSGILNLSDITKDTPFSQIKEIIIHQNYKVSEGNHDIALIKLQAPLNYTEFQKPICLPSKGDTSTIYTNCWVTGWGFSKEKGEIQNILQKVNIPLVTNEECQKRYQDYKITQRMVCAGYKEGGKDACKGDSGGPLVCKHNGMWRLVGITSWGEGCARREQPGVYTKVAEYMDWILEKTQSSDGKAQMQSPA
Experimental: Peptides were dissolved as the TFA-salts in their powder form, and stock solutions were usually prepared in water. All solutions were centrifuged and filtered ([…] syringe filters) prior absorption measurement at 280 nm. […] For peptides containing non-natural amino acids with suspected chromophoric properties (i.e. NorHar, 4PhenylPro, 3PaI, 4PaI, Tic, 4GuanPhe, 4,4-BPAI, 3,3-DPA, 1NAI, 2NAI, 4BenzylPro, Ind) concentrations were determined by weighing the powder and dissolving the peptide in a defined quantity of water.

Row | Compound | Observable in rat plasma, for days [1] [days] | Ki (human plasma Kallikrein) [nM] | other results
1 | CC(=O)N[C@H]1CSCc2cc3cc(c2)CSC[C@H](NC(=O)[C@H](CCCNC(=N)N)NC(=O)[C@H](C)NC(=O)[C@@H]2CCCN2C(=O)[C@H](Cc2ccc4ccccc4c2)NC(=O)[C@H](CO)NC1=O)C(=O)N[C@@H](CC(C)C)C(=O)N[C@@H](Cc1c[nH]cn1)C(=O)N[C@@H](CCC(N)=O)C(=O)N[C@@H](CC(=O)O)C(=O)N[C@@H](CC(C)C)C(=O)N[C@H](C(N)=O)CSC3 [Ac-(06-34-18) 2NAL2] (Ac-CS[2Nal]PARCLHQDLC-NH2; linker 1-7-13 via TBMB) | 2 | 0.5 | 
2 | CC(=O)N[C@H]1CSCc2cc3cc(c2)CSC[C@H](NC(=O)[C@H](CCCNC(=N)N)NC(=O)[C@H](C)NC(=O)[C@@H]2C[C@@H](Cc4ccccc4)CN2C(=O)[C@H](Cc2c[nH]c4ccccc24)NC(=O)[C@H](CO)NC1=O)C(=O)N[C@@H](CC(C)C)C(=O)N[C@@H](Cc1c[nH]cn1)C(=O)N[C@@H](CCC(N)=O)C(=O)N[C@@H](CC(=O)O)C(=O)N[C@@H](CC(C)C)C(=O)N[C@H](C(N)=O)CSC3 [Ac-(06-34-18) 4Benzyl Pro3] (Ac-CSW[Pro(4R-Bn)]ARCLHQDLC-NH2; linker 1-7-13 via TBMB) | 2 | 191 | 
3 | CC(=O)N[C@H]1CSCc2cc3cc(c2)CSC[C@H](NC(=O)[C@H](CCCNC(=N)N)NC(=O)[C@H](C)NC(=O)[C@@H]2C[C@@H](c4ccccc4)CN2C(=O)[C@H](Cc2c[nH]c4ccccc24)NC(=O)[C@H](CO)NC1=O)C(=O)N[C@@H](CC(C)C)C(=O)N[C@@H](Cc1c[nH]cn1)C(=O)N[C@@H](CCC(N)=O)C(=O)N[C@@H](CC(=O)O)C(=O)N[C@@H](CC(C)C)C(=O)N[C@H](C(N)=O)CSC3 [Ac-(06-34-18) 4Phenyl Pro3] (Ac-CSW[Pro(trans-4-Ph)]ARCLHQDLC-NH2; linker 1-7-13 via TBMB) | 2 | 0.58 | 
4 | CC[C@@H]1NC(=O)[C@@H]2CCCN2C(=O)[C@H](Cc2c[nH]c3ccccc23)NC(=O)[C@H](CO)NC(=O)[C@@H](NC(C)=O)CSCc2cc3cc(c2)CSC[C@H](NC(=O)[C@H](CCCNC(=N)N)NC1=O)C(=O)N[C@@H](CC(C)C)C(=O)N[C@@H](Cc1c[nH]cn1)C(=O)N[C@@H](CCC(N)=O)C(=O)N[C@@H](CC(=O)O)C(=O)N[C@@H](CC(C)C)C(=O)N[C@H](C(N)=O)CSC3 [Ac-(06-34-18) Aba4] (Ac-CSWP[Abu]RCLHQDLC-NH2; linker 1-7-13 via TBMB) | 2 | 0.07 | 
5 | CC(=O)N[C@H]1CSCc2cc3cc(c2)CSC[C@H](NC(=O)[C@H](CCCNC(=N)N)NC(=O)[C@H](C)NC(=O)C(C)(C)NC(=O)[C@H](Cc2c[nH]c4ccccc24)NC(=O)[C@H](CO)NC1=O)C(=O)N[C@@H](CC(C)C)C(=O)N[C@@H](Cc1c[nH]cn1)C(=O)N[C@@H](CCC(N)=O)C(=O)N[C@@H](CC(=O)O)C(=O)N[C@@H](CC(C)C)C(=O)N[C@H](C(N)=O)CSC3 [Ac-(06-34-18) Aib3] (Ac-CSW[Aib]ARCLHQDLC-NH2; linker 1-7-13 via TBMB) | 2 | 1.2 | 
6 | CC(=O)N[C@H]1CSCc2cc3cc(c2)CSC[C@H](NC(=O)[C@H](CCCNC(=N)N)NC(=O)C(C)(C)NC(=O)[C@@H]2CCCN2C(=O)[C@H](Cc2c[nH]c4ccccc24)NC(=O)[C@H](CO)NC1=O)C(=O)N[C@@H](CC(C)C)C(=O)N[C@@H](Cc1c[nH]cn1)C(=O)N[C@@H](CCC(N)=O)C(=O)N[C@@H](CC(=O)O)C(=O)N[C@@H](CC(C)C)C(=O)N[C@H](C(N)=O)CSC3 [Ac-(06-34-18) Aib4] (Ac-CSWP[Aib]RCLHQDLC-NH2; linker 1-7-13 via TBMB) | 7 | 289 | 
7 | CC(=O)N[C@H]1CSCc2cc3cc(c2)CSC[C@H](NC(=O)[C@H](Cc2ccc(NC(=N)N)cc2)NC(=O)[C@H](C)NC(=O)[C@@H]2CCN2C(=O)[C@H](Cc2c[nH]c4ccccc24)NC(=O)[C@H](CO)NC1=O)C(=O)N[C@@H](CC(C)C)C(=O)N[C@@H](Cc1c[nH]cn1)C(=O)N[C@@H](CCC(N)=O)C(=O)N[C@@H](CC(=O)O)C(=O)N[C@@H](CC(C)C)C(=O)N[C@H](C(N)=O)CSC3 [Ac-(06-34-18) Aze3 4GuanPhe5] (Ac-CSW[Aze]A[Phe(4-guanidino)]CLHQDLC-NH2; linker 1-7-13 via TBMB) | >10 | 0.17 | 
8 | CC(=O)N[C@H]1CSCc2cc3cc(c2)CSC[C@H](NC(=O)[C@H](CCCNC(=N)N)NC(=O)[C@H](C)NC(=O)[C@@H]2CCN2C(=O)[C@H](Cc2c[nH]c4ccccc24)NC(=O)[C@H](CO)NC1=O)C(=O)N[C@@H](CC(C)C)C(=O)N[C@@H](Cc1c[nH]cn1)C(=O)N[C@@H](CCC(N)=O)C(=O)N[C@@H](CC(=O)O)C(=O)N[C@@H](CC(C)C)C(=O)N[C@H](C(N)=O)CSC3 [Ac-(06-34-18) Aze3] (Ac-CSW[Aze]ARCLHQDLC-NH2; linker 1-7-13 via TBMB) | 2 |  | affinity surpassing that of wildtype by a factor (human plasma Kallikrein; vs Ac-06-34-18(TMB)-NH2): 3
9 | CC(=O)N[C@H]1CSCc2cc3cc(c2)CSC(C)(C)[C@H](NC(=O)[C@H](CCCNC(=N)N)NC(=O)[C@H](C)NC(=O)[C@@H]2CCCN2C(=O)[C@H](Cc2c[nH]c4ccccc24)NC(=O)[C@H](CO)NC1=O)C(=O)N[C@@H](CC(C)C)C(=O)N[C@@H](Cc1c[nH]cn1)C(=O)N[C@@H](CCC(N)=O)C(=O)N[C@@H](CC(=O)O)C(=O)N[C@@H](CC(C)C)C(=O)N[C@H](C(N)=O)CSC3 [Ac-(06-34-18) Cys2ToPen2] (Ac-CSWPAR[Pen]LHQDLC-NH2; linker 1-7-13 via TBMB) | 5 |  | rat plasma stability [1]: slightly enhanced; potency against human plasma Kallikrein compared to parent (human plasma Kallikrein): potency dropped significantly
10 | CC(=O)N[C@H]1CSCc2cc3cc(c2)CSC[C@H](NC(=O)[C@H](CCCNC(=N)N)NC(=O)[C@H](C)NC(=O)[C@@H]2CCCN2C(=O)[C@H](Cc2ccccc2)NC(=O)[C@H](CO)NC1=O)C(=O)N[C@@H](CC(C)C)C(=O)N[C@@H](Cc1c[nH]cn1)C(=O)N[C@@H](CCC(N)=O)C(=O)N[C@@H](CC(=O)O)C(=O)N[C@@H](CC(C)C)C(=O)N[C@H](C(N)=O)CSC3 [Ac-(06-34-18) FPAR] (Ac-CSFPARCLHQDLC-NH2; linker 1-7-13 via TBMB) | 2 |  | loss in potency / reduction in affinity compared to wildtype (human plasma Kallikrein; vs Ac-06-34-18(TMB)-NH2): 40 fold
11 | CC(=O)N[C@H]1CSCc2cc3cc(c2)CSC[C@H](NC(=O)[C@H](CCCNC(=N)N)NC(=O)[C@H](C)NC(=O)[C@@H]2C[C@@H](O)CN2C(=O)[C@H](Cc2c[nH]c4ccccc24)NC(=O)[C@H](CO)NC1=O)C(=O)N[C@@H](CC(C)C)C(=O)N[C@@H](Cc1c[nH]cn1)C(=O)N[C@@H](CCC(N)=O)C(=O)N[C@@H](CC(=O)O)C(=O)N[C@@H](CC(C)C)C(=O)N[C@H](C(N)=O)CSC3 [Ac-(06-34-18) HyP3] (Ac-CSW[Hyp]ARCLHQDLC-NH2; linker 1-7-13 via TBMB) | 2 | 0.41 | 
12 | CC(=O)N[C@H]1CSCc2cc3cc(c2)CSC[C@H](NC(=O)[C@H](CCCNC(=N)N)N(C)C(=O)[C@H](C)NC(=O)[C@@H]2CCCN2C(=O)[C@H](Cc2c[nH]c4ccccc24)NC(=O)[C@H](CO)NC1=O)C(=O)N[C@@H](CC(C)C)C(=O)N[C@@H](Cc1c[nH]cn1)C(=O)N[C@@H](CCC(N)=O)C(=O)N[C@@H](CC(=O)O)C(=O)N[C@@H](CC(C)C)C(=O)N[C@H](C(N)=O)CSC3 [Ac-(06-34-18) NMeArg5] |  |  | rat plasma stability [1]: exceeds the assay time; loss in potency / reduction in affinity compared to wildtype (human plasma Kallikrein; vs Ac-06-34-18(TMB)-NH2): 20 fold
13 | CC(=O)N[C@H]1CSCc2cc3cc(c2)CSC[C@H](NC(=O)[C@H](CCCNC(=N)N)NC(=O)[C@H](C)NC(=O)[C@@H]2Cc4ccccc4CN2C(=O)[C@H](Cc2c[nH]c4ccccc24)NC(=O)[C@H](CO)NC1=O)C(=O)N[C@@H](CC(C)C)C(=O)N[C@@H](Cc1c[nH]cn1)C(=O)N[C@@H](CCC(N)=O)C(=O)N[C@@H](CC(=O)O)C(=O)N[C@@H](CC(C)C)C(=O)N[C@H](C(N)=O)CSC3 [Ac-(06-34-18) Tic3] (Ac-CSW[Tic]ARCLHQDLC-NH2; linker 1-7-13 via TBMB) | 2 | 13.5 | 
14 | CC(C)C[C@@H]1NC(=O)[C@H](CC(=O)O)NC(=O)[C@H](CCC(N)=O)NC(=O)[C@H](Cc2c[nH]cn2)NC(=O)[C@H]([C@@H](C)O)NC(=O)[C@@H]2CSCc3cc(cc(c3)CSC[C@@H](C(=O)N[C@@H](C)C(N)=O)NC1=O)CSC[C@H](NC(=O)[C@H](C)N)C(=O)N[C@@H](CCCNC(=N)N)C(=O)N[C@@H](Cc1c[nH]c3ccccc13)C(=O)N1CCC[C@H]1C(=O)N[C@@H](C)C(=O)N[C@@H](CCCNC(=N)N)C(=O)N2 [Peptide 06-34-02] (H-ACRWPARCTHQDLCA-NH2; linker 2-8-14 via TBMB) |  |  | IC50 (human plasma Kallikrein): 0.16 nM
